The target of this experiment is T1, h-11βHSD1 (Homo sapiens, UniProt P28845).
T1 construct: made in house; host or cells: yeast (extract of transformed yeast)
Description: 11βHSD1 enzyme assay (SPA). The experiment is classed as biochemical. The note with it: extract of yeast transformed with h-11βHSD1; 120 nM 3H-cortisone, 4 mM β-NADPH, 60 min at 30° C. The procedure:
^3H-cortisone and anti-rabbit Ig coated scintillation proximity assay (SPA) beads were purchased from Amersham Pharmacia Biotech, β-NADPH was from Sigma and rabbit anti-cortisol antibodies were from Fitzgerald. An extract of yeast transformed with h-11βHSD1 (Hult et al., FEBS Lett. 441, 25 (1998)) was used as the source of enzyme. The test compounds were dissolved in DMSO (10 mM). All dilutions were performed in a buffer containing 50 mM TRIS-HCl (Sigma Chemical Co), 4 mM EDTA (Sigma Chemical Co), 0.1% BSA (Sigma Chemical Co), 0.01% Tween-20 (Sigma Chemical Co) and 0.005% bacitracin (Novo Nordisk A/S), pH=7.4. Optiplate 96 wells plates were supplied by Packard. The amount of ^3H-cortisol bound to the SPA beads was measured on TopCount NXT, Packard.
h-11βHSD1, 120 nM ^3H-cortisone, 4 mM β-NADPH, antibody (1:200), serial dilutions of test compound and SPA particles (2 mg/well) were added to the wells. The reaction was initiated by mixing the different components and was allowed to proceed under shaking for 60 min at 30° C. […] Data was analysed using GraphPad Prism software.

T1 sequence (P28845 whole entry): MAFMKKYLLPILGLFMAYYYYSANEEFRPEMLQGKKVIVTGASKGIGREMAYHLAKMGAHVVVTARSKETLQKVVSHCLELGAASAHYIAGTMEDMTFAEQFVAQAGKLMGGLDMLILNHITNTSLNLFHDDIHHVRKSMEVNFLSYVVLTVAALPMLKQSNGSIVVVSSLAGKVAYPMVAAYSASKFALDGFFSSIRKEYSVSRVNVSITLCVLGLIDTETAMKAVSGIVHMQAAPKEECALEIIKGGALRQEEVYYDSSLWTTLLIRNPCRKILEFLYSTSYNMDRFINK

By IC50 is commonly meant the midpoint of a concentration-inhibition curve. A high value points to weaker potency in that assay. `Brc1ccccc1-c1nnc2n1CCCCC2` [Example 1, 3-(2-Bromo-phenyl)-6,7,8,9-tetrahydro-5H-[1,2,4]triazolo[4,3-a]azepine] gave a half-maximal inhibitory concentration (IC50) of 0.23 µM. Under `c1ccc(OCc2ccccc2-c2nnc3n2CCCCC3)cc1` [Example 1-a] stands 0.11 µM.

For the origin of these results see US7723323B2, “Pharmaceutical use of fused 1,2,4-triazoles” (High Point Pharmaceuticals, LLC, priority 2003, dated 2010).
